{
  "source": "patent US20090220533A1",
  "about": "“Novel T-Helper Antigenic Determinant (THD) Peptides” (priority 2005, published 2009)",
  "key": {"[1]": {"target": "Class I HLA on the EBV-transformed B cell lines (human)", "test": "flow cytometry on BOLETH cells; inhibition of the binding of biotinylated p45 (10 uM) by the antibody diluted 1/500"}, "[2]": {"target": "Class I HLA on the EBV-transformed B cell lines (human)", "test": "flow cytometry on MOU cells; inhibition of the binding of biotinylated p45 (10 uM) by the antibody diluted 1/500"}, "[3]": {"target": "Class I HLA on the EBV-transformed B cell lines (human)", "test": "flow cytometry on HOM2 cells; inhibition of the binding of biotinylated p45 (10 uM) by the antibody diluted 1/500"}, "[4]": {"target": "Class I HLA on the EBV-transformed B cell lines (human)", "test": "flow cytometry on RSH cells; inhibition of the binding of biotinylated p45 (10 uM) by the antibody diluted 1/500"}, "[5]": {"target": "Class I HLA on the EBV-transformed B cell lines (human)", "test": "flow cytometry on SWEIG cells; inhibition of the binding of biotinylated p45 (10 uM) by the antibody diluted 1/500"}, "[6]": {"target": "Class I HLA on the EBV-transformed B cell lines (human)", "test": "flow cytometry on OLGA cells; inhibition of the binding of biotinylated p45 (10 uM) by the antibody diluted 1/500"}, "HLA-DR": {"system": "HLA-DR", "test": "Inhibition of biotinylated p45 binding to cell lines by anti-HLA-DR antibody (L243)", "set-up": "species or system human", "conditions": "for Percentage of inhibition (%) aDR: biotinylated p45 10 μM", "description": "(§1) In second place, the HLA-DR4 cell line was incubated in the presence of the biotinylated P45 peptides and antibodies selected due to their specificity to HLA-DR, HLA-DP, HLA-DQ and Class I HLA respectively (FIG. 3).\n(§2) In a 96-well plate with U-shaped bottom, the HLA-DR4 cell line was seeded (already defined); (2×10^5 per well), also adding biotinylated P45 peptides (10 μM), alone or together with supernatant of the hybridomas: L243 anti-HLA-DR (ATCC Ref: HB-55), or W6/32 anti-Class I (ATCC Ref: HB-95) or the antibodies 33.1 anti-HLA-DQ or anti-HLA-DP B7/21, which were provided by Dr. Ghislaine Sterkers. All were diluted to (1/500) in a final volume of 100 μl of RPMI with 2.5% FBS.\n(§3) % Inhibition=100×((Fp45+aHLA−Fblnk)/(Fp45−Fblnk))\n(§4) where Fblnk is the fluorescence measured when the cells were cultured without adding peptide or antibodies (blank), Fp45 is the fluorescence measured when it was incubated with the biotinylated P45 peptides alone, and Fp45+aHLA is the fluorescence measured when it was measured with the biotinylated p45 together with the corresponding HLA antibodies.\n(§5) All the assays were performed in triplicate.\n(§6) In this way, these tests were repeated on the HLA-DR1, HLA-DR3, HLA-DR7, HLA-DR8, HLA-DR11 cell lines. The inhibition percentages obtained are set down in Table 2."}, "Class I HLA": {"system": "Class I HLA", "test": "Inhibition of biotinylated p45 binding to cell lines by anti-Class I antibody (W6/32)", "set-up": "species or system human", "conditions": "biotinylated p45 10 μM", "description": "as §1, §2, §3, §4, §5, §6"}, "HLA-DQ": {"system": "HLA-DQ", "test": "Inhibition of biotinylated p45 binding to cell lines by anti-HLA-DQ antibody (33.1)", "set-up": "species or system human", "conditions": "for Percentage of inhibition (%) aDQ: biotinylated p45 10 μM", "description": "as §1, §2, §3, §4, §5, §6"}, "HLA-DR4 cell line": {"target": "T1, HLA-DR4 cell line (Homo sapiens, UniProt P01903+P01911, /P40V/Q125Y/R42H/S133A/S149N/S66Y/V115G/V209L/W38E)", "T1 construct": "host or cells: EBV-transformed B lymphocyte line homozygous for HLA-DR4", "test": "Direct binding of biotinylated p45 at different concentrations to the HLA-DR4 cell line, fluorescence (FIG. 2)", "conditions": "range of concentrations tested", "description": "In first place, tests were performed for binding to HLA-DR in the different cell lines, incubated with biotinylated p45 at different concentrations. To avoid the possible crystallization of the peptide, this was solubilized with the aid of a sonicator. […] As can be verified, the peptide binding is dose-dependent in the range of concentrations tested."}, "HLA-DP": {"system": "HLA-DP", "test": "Inhibition of biotinylated p45 binding to cell lines by anti-HLA-DP antibody (B7/21)", "set-up": "species or system human", "conditions": "biotinylated p45 10 μM", "description": "as §1, §2, §3, §4, §5, §6"}, "[7]": {"target": "T2, HLA-DR8 (DRB1*0802) on OLGA cells (human)", "T2 construct": "whole, on cells; On the EBV-transformed B cell line OLGA (ECACC 88052100)", "test": "flow cytometry on OLGA cells; inhibition by anti-HLA-DR antibody"}, "[8]": {"conditions": "cell line BOLETH, DR4, DRB1*0401-DQB1*0302"}, "[9]": {"conditions": "cell line HOM2, DR1, DRB1*0101-DQB1*0501"}, "[10]": {"conditions": "cell line MOU, DR7, DRB1*0701-DQB1*0201"}, "[11]": {"conditions": "cell line OLGA, DR8, DRB1*0802-DQB1*0402"}, "[12]": {"conditions": "cell line RSH, DR3, DRB1*0302-DQB1*0402"}, "[13]": {"conditions": "cell line SWEIG, DR11, DRB1*11011-DQB1*0301"}},
  "note": "No end group written: not given here.",
  "data": [
    {"molecule": "W6/32 anti-Class I (ATCC Ref: HB-95) (antibody)", "values": [
      {"measurement": "Percentage of inhibition (%)", "setting": "[1]", "value": 1, "unit": "%"},
      {"measurement": "Percentage of inhibition (%)", "setting": "[2]", "value": 0, "unit": "%"},
      {"measurement": "Percentage of inhibition (%)", "setting": "[3]", "value": 13, "unit": "%"},
      {"measurement": "Percentage of inhibition (%)", "setting": "[4]", "value": 6, "unit": "%"},
      {"measurement": "Percentage of inhibition (%)", "setting": "[5]", "value": 0, "unit": "%"},
      {"measurement": "Percentage of inhibition (%)", "setting": "[6]", "value": 5, "unit": "%"}
    ]},
    {"molecule": "biotinylated p45: p45 peptide conjugated with biotin (EZ-Link Sulfo-NHS-LC-Biotin) (FKYRMMMRMRAAA; also: biotin (EZ-Link Sulfo-NHS-LC-Biotin), site not given here)", "values": [
      {"measurement": "Binding of biotinylated peptide to HLA-DR1", "setting": "HLA-DR; HLA-DR1 cell line", "value": "bound to HLA-DR1"},
      {"measurement": "Capacity of binding to HLA-DR", "setting": "HLA-DR; all the cell lines (Table 2)", "value": "high capacity of binding"},
      {"measurement": "Percentage of inhibition (%) aDR", "setting": "HLA-DR; [8]", "value": 59, "unit": "%"},
      {"measurement": "Percentage of inhibition (%) aDR", "setting": "HLA-DR; [9]", "value": 78, "unit": "%"},
      {"measurement": "Percentage of inhibition (%) aDR", "setting": "HLA-DR; [10]", "value": 71, "unit": "%"},
      {"measurement": "Percentage of inhibition (%) aDR", "setting": "HLA-DR; [11]", "value": 92, "unit": "%"},
      {"measurement": "Percentage of inhibition (%) aDR", "setting": "HLA-DR; [12]", "value": 86, "unit": "%"},
      {"measurement": "Percentage of inhibition (%) aDR", "setting": "HLA-DR; [13]", "value": 89, "unit": "%"},
      {"measurement": "Percentage of inhibition (%) aClI", "setting": "Class I HLA; [8]", "value": 1, "unit": "%"},
      {"measurement": "Percentage of inhibition (%) aClI", "setting": "Class I HLA; [9]", "value": 13, "unit": "%"},
      {"measurement": "Percentage of inhibition (%) aClI", "setting": "Class I HLA; [10]", "value": 0, "unit": "%"},
      {"measurement": "Percentage of inhibition (%) aClI", "setting": "Class I HLA; [11]", "value": 5, "unit": "%"},
      {"measurement": "Percentage of inhibition (%) aClI", "setting": "Class I HLA; [12]", "value": 6, "unit": "%"},
      {"measurement": "Percentage of inhibition (%) aClI", "setting": "Class I HLA; [13]", "value": 0, "unit": "%"},
      {"measurement": "Capacity of binding to HLA-DQ", "setting": "HLA-DQ; all the cell lines (Table 2)", "value": "high capacity of binding"},
      {"measurement": "Percentage of inhibition (%) aDQ", "setting": "HLA-DQ; [8]", "value": 75, "unit": "%"},
      {"measurement": "Percentage of inhibition (%) aDQ", "setting": "HLA-DQ; [9]", "value": 75, "unit": "%"},
      {"measurement": "Percentage of inhibition (%) aDQ", "setting": "HLA-DQ; [10]", "value": 98, "unit": "%"},
      {"measurement": "Percentage of inhibition (%) aDQ", "setting": "HLA-DQ; [11]", "value": 88, "unit": "%"},
      {"measurement": "Percentage of inhibition (%) aDQ", "setting": "HLA-DQ; [12]", "value": 98, "unit": "%"},
      {"measurement": "Percentage of inhibition (%) aDQ", "setting": "HLA-DQ; [13]", "value": 83, "unit": "%"},
      {"measurement": "Dose dependence of peptide binding (fluorescence)", "setting": "HLA-DR4 cell line", "value": "dose-dependent"},
      {"measurement": "Percentage of inhibition (%) aDP", "setting": "HLA-DP; [8]", "value": 7, "unit": "%"},
      {"measurement": "Percentage of inhibition (%) aDP", "setting": "HLA-DP; [9]", "value": 23, "unit": "%"},
      {"measurement": "Percentage of inhibition (%) aDP", "setting": "HLA-DP; [10]", "value": 13, "unit": "%"},
      {"measurement": "Percentage of inhibition (%) aDP", "setting": "HLA-DP; [11]", "value": 4, "unit": "%"},
      {"measurement": "Percentage of inhibition (%) aDP", "setting": "HLA-DP; [12]", "value": 28, "unit": "%"},
      {"measurement": "Percentage of inhibition (%) aDP", "setting": "HLA-DP; [13]", "value": 0, "unit": "%"}
    ]},
    {"molecule": "FKYRMMMRMRAAA (also: biotinylated (Sulfo-NHS-LC-Biotin), site not given here, also called biotinylated P45 peptide; biotinylated P45 peptides)", "note": "[biotinylated p45]", "values": [
      {"measurement": "binding result", "setting": "[7]", "value": "binds"}
    ]}
  ]
}
